{"source": "patent US6767569B1", "about": "“Surface decontamination of cooked sausage and processed meat and poultry products” (priority 1999, dated 2004)", "assay_type_in_all_cases": "cell-based", "key": {"E. coli [1]": {"test_system": "E. coli", "method": "(§1) Each strain was subcultured on tryptic soy agar (TSA, DIFCO, Detroit, Mich.) slants and stored at 4° C. Strains were individually transferred into 100 mL of sterile 2× BHI (DIFCO, Detroit, Mich.) and incubated at 35° C. for 24 hr. to reach ca. 10^9 colony forming units/mL (CFU/mL). Then, 25 mL of each strain of E. coli was transferred into a sterile bottle (mixture X), and 25 mL of each strain of each strain of Salmonella spp. was transferred into a sterile bottle (mixture Y). Mixtures X and Y were maintained separately throughout the test.\n(§2) Serial dilutions were made using Butterfields' Phosphate Buffer (BPB, Sigma, St. Louis, Mo.) in 1 mL aliquots prior to inoculation. BPB was prepared as a stock solution by adding 34 g Of KH2PO4 to 500 mL of distilled water. The pH was adjusted to 7.2, and the solution was brought to a volume of 1 L. The BPB stock was autoclaved for 20 min. at 121° C. and 15 lbs. of pressure. […] For glacial acetic acid (U.S.P.-F.C.C., J. T. Baker, Phillipsburg, N.J.), starting concentrations and serial dilutions were 50%, 25%, 12.5%, 6.25%, 3.12%, 1.56%, 0.78%, 0.39%, and a control (no treatment, buffer and culture). […] For peracetic acid 35.0% (STERIS 20™, STERIS Corporation, Mentor, Ohio), starting concentrations and serial dilutions were 17.5%, 8.75%, 4.38%, 2.19%, 1.09%, 0.55%, 0.30%, 0.14%, 0.07%, 0.03%, and a control. For liquid smoke (Hickory Specialties, Brentwood, Tenn.) starting concentrations and serial dilutions were 50%, 25%, 12.5%, 6.25%, 3.12%, 1.56%, 0.78%, 0.39%, and a control. Dilutions were prepared with deionized water.\n(§3) The test tubes were incubated at 35° C. for 24 hrs. and turbidity was evaluated using McFarland equivalence standards, to study the bacteriostatic properties of the diluted solutions. In addition, each dilution was plated to evaluate the bactericidal properties of, the diluted solutions. Using a 1 μL sterile loop, each concentration and control for either microorganism mixture was streaked on plate count agar (PCA, DIFCO, Detroit, Mich.). A selective agar was also used for each mixture, eosine methylene blue agar (EMB, DIFCO, Detroit, Mich.) for E. coli and xylose lysine decarboxylase agar (XLD, DIFCO, Detroit,Mich.) for Salmonella spp. All plates were incubated for 24 hrs. at 35° C. and were inspected for growth or no growth."}, "Salmonella spp. [2]": {"test_system": "Salmonella spp.", "conditions": "35 °C, 24 hrs", "method": "as §1, §2, §3"}, "E. coli [3]": {"test_system": "E. coli", "conditions": "pork skin; 5 seconds spray; 2% lactic acid, 2% acetic acid, 0.1% peracetic acid; after 24 hours", "method": "(§4) Samples of pork skin were inoculated separately with either 5 strains of E. coli or 5 strains of Salmonella spp. (mixtures X and Y, see Example 4). Five different treatments were evaluated for effectiveness in reducing bacteria on pork skin. […] EMB agar was used for E. coli and XLD for Salmonella, and a nutrient agar was also used for E. coli and Salmonella for total count.\n(§5) The five strains of generic E. coli and five strains of Salmonella spp. were cultured and transferred individually into 100 mL of tryptic soy broth (TSB, DIFCO, Detroit, Mich.) with 1% dextrose (Sigma, St. Louis, Mo.) in duplicate. Dextrose was added to induce acid tolerance in the microbial cell. The cultures were incubated at 35° C. for 24 hrs. to obtain ca. 10^9 colony forming units (CFU)/mL. The cells were harvested by the centrifuging each culture at 10,000 Xg force for 10 min. at 4° C., (Beckman J2-HS centrifuge, Beckman Instruments, Inc., Palo Alto, Calif.). After centrifugation, the supernatant was poured off, and cells remained in pellet form. Each pellet was individually re-suspended with 50 mL of 0.1% peptonewater (DIFCO, Detroit, Mich.). All five strains of E. coli or Salmonella spp. inoculum were transferred to separate HDPE plastic spray bottles (Sprayco™, Detroit, Mich.) to be used in the mist inoculation of pork skin samples.\n(§6) For E. coli, PCA and EMB media were used, and for Salmonella, PCA and XLD media were used. Bacto Plate Count Agar (PCA) was used in this study as a standard methods medium for the enumeration of bacteria before and after treatments. Spiral (sl), or spread (sd) plate technique were used for viable cell counts. Duplicate plates were performed for each treatment.\n(§7) Fresh pork skins taken from the loin region were cut to rectangles of 19.35 cm^2. A hole was bored into the top of each sample so that each sample could be suspended from an individual hook in the spray cabinet. Samples were laid out onto trays wrapped in butcher paper. Each tray was individually spray inoculated with E. coli or Salmonella spp. in a Plexiglas spray chamber to ca. 8.4 mL of inoculum. After the inoculation, each tray was placed under a laminar flow hood for 1 hr. to allow the surface to dry and for the attachment of the bacteria to the pork skin.\n(§8) The peracetic acid (PAA) used in this study was a 35.0% PAA buffered, liquid solution prepared from a STERIS 20™ two compartment cup (a dry powder containing anticorrosive additives, buffers, sequestrants, and surfactants). The peracetic acid determined before each use of the treatment using a calibration curve.\n(§9) Five inoculated samples were individually placed on stainless steel hooks in. a spray cabinet at ambient temperature.\n(§10) The samples were exposed to a continuous spray of the selected treatment for 5 seconds at a spray pressure of 16-18 psi.\n(§11) The treated samples were placed into individual stomacher bags containing 30 mL of 0.1% peptone water (DIFCO, Detroit, Mich.) and stomached for 2 min. Serial dilutions of 0, 10^−2, and 10^−4 were spiral plated (WASP spiral plater, Bioscience International, Rockville, Md.) on PCA (DIFCO, Detroit, Mich.) and EMB (DIFCO, Detroit, Mich.) for E. coli and on plate count agar (PCA, DIFCO, Detroit, Mich.) and xylose lysine decarboxylase agar (XLD, DIFCO, Detroit, Mich.) for Salmonella spp. Samples were also spread plated on PCA and EMB agar for E. coli or PCA and XLD agar for Salmonella spp, using […] for a total of 1 mL on 4 plates. This was to ensure a countable plate. Plates were inverted and incubated at 35° C. for 24 hrs. (48 hrs. for Salmonella spp.)."}, "Salmonella spp. [4]": {"test_system": "Salmonella spp.", "conditions": "pork skin; 5 seconds spray; 2% lactic acid, 2% acetic acid, 0.1% peracetic acid; after 48 hours", "method": "as §4, §5, §6, §7, §8, §9, §10, §11"}}}
{"smiles": "CC(=O)O", "note": "[Acetic Acid, acetic acid, reference compound]", "values": [{"measurement": "MIC (%)", "setting": "E. coli [1]", "result": 3.12, "unit": "%"}, {"measurement": "MIC (%)", "setting": "Salmonella spp. [2]", "result": 0.78, "unit": "%"}, {"measurement": "Total Count (E. coli) on EMB", "setting": "E. coli [3]", "result": 4.55, "unit": "Log CFU/cm^2"}, {"measurement": "Total Count (E. coli) on PCA", "setting": "E. coli [3]", "result": 4.68, "unit": "Log CFU/cm^2"}, {"measurement": "Total Count (Salmonella) on PCA", "setting": "Salmonella spp. [4]", "result": 5.37, "unit": "Log CFU/cm^2"}, {"measurement": "Total Count (Salmonella) on XLD", "setting": "Salmonella spp. [4]", "result": 4.27, "unit": "Log CFU/cm^2"}]}
